From PMC6283615, “Anilinoquinoline based inhibitors of trypanosomatid proliferation” (PLoS Neglected Tropical Diseases, 2018)
Values after ≈ are worked out from the molar mass of the structure shown. Where two headings read alike, the source gives them in different places.

How the values were obtained:
[1] = system: HepG2 cells; assay: Drug toxicity to HepG2 cells (MTT, 48 h); type: cell-based, human; settings: tested concentration ranges based on compound solubility
Description: HepG2 cells were cultured in complete Minimal Essential Medium prepared by supplementing MEM with 0.19% sodium bicarbonate, 10% heat inactivated FBS, 2 mM L-glutamine, 0.1 mM MEM non-essential amino, 0.009 mg/mL insulin, 1.76 mg/mL bovine serum albumin, 20 units/mL penicillin–streptomycin, and 0.05 mg/mL gentamycin. HepG2 cells cultured in complete MEM were first washed with 1× Hank’s Balanced Salt Solution (Invitrogen #14175095), trypsinized using a 0.25% trypsin/EDTA solution, assessed for viability using trypan blue, and resuspended at 250,000 cells/mL. Using a Tecan EVO Freedom robot, 38.3 μL of cell suspension were added to each well of clear, cell culture-treated 384-well microtiter plates for a final concentration of 9570 liver cells per well, and plated cells were incubated overnight in 5% CO2 at 37°C. Drug plates were prepared with the Tecan EVO Freedom using sterile 96 well plates containing twelve duplicate 1.6-fold serial dilutions of each test compound suspended in DMSO. 4.25 μL of diluted test compound was then added to the 38.3 μL of media in each well providing a […] final dilution of compound. Compounds were tested from a range of 57 ng/mL to 10,000 ng/mL for all assays. Mefloquine was used as a plate control for all assays with a concentration ranging from 113 ng/mL to 20,000 ng/mL. After a 48 h incubation period, 8 μL of a 1.5 mg/mL solution of MTT diluted in complete MEM media was added to each well. All plates were subsequently incubated in the dark for 1 h at room temperature. After incubation, the media and drugs in each well was removed by shaking the plate over sink, and the plates were left to dry in a fume hood for 15 mins. Next, 30 μL of isopropanol acidified by addition of HCl at a final concentration of 0.36% was added to dissolve the formazan dye crystals created by reduction of MTT. Plates are put on a 3-D rotator for 15–30 mins. Absorbance was determined in all wells using a Tecan iControl 1.6 Infinite plate reader.

[2] = Aqueous solubility; type: physicochemical
[3] = Human liver microsome intrinsic clearance; type: in vitro ADME; settings: for microsomal CLint: liver microsomes
[4] = system: NIH/3T3 cells; assay: Drug toxicity to 3T3 cells (Alamar Blue, 96 h); type: cell-based
Description: In a 96-well plate, 5×10^4 NIH/3T3 (ATCC CRL-1658) cells (purchased from ATCC) in DMEM without phenol red supplemented with 2% FBS were added to each well. Cells were incubated for 2 h to allow for attachment. Compounds were added in triplicates at 200 μM and in serial dilutions 1:2 and incubated at 37°C, 5% CO2 for 96 h. […] Following incubation, 10 μL of Alamar Blue (ThermoFisher) were added to each well and cells incubated at 37°C, 5% CO2 for 4 h. Absorbance was read at 590–595 nm.

[5] = system: T. cruzi amastigote (Tulahuen strain expressing β-galactosidase); assay: Intracellular T. cruzi assay in 3T3 cells (beta-galactosidase, 96 h); type: cell-based, Trypanosoma cruzi; settings: read-out: T. cruzi amastigote EC50
Description: In a 96-well plate, 5×10^4 3T3 cells in DMEM without phenol red supplemented with 2% FBS were added to each well. Cells were incubated for 2 h to allow for attachment. Compounds were added in triplicates at 50 μM and in serial dilutions 1:2. To each well, 5×10^4 T. cruzi trypomastigotes (Tulahuen strain expressing β-galactosidase) were added and incubated at 37°C, 5% CO2 for 96 h. Following incubation, 50 μL of 500 μM chlorophenol Red-β-D-galactopyranoside (CPRG) in phosphate-buffered saline with 0.5% NP40 was added to each well and incubated at 37°C, 5% CO2 for 4 h. Absorbance was read at 590–595 nm.

[6] = system: T. b. brucei (strain 427); assay: T. b. brucei proliferation assay (PrestoBlue, 48 h); type: cell-based, Trypanosoma brucei brucei
Description: The assay was performed following a previously reported procedure. Briefly, in a 96-well plate, compounds were added in triplicates at 50 μM and in serial dilutions 1:2 in HMI-9 medium. To each well, 100 μL of 2.5×10^3 T. b. brucei (strain 427, received as a gift from Dr. C. C. Wang at UCSF) in HMI-9 medium was were added and incubated at 37°C, 5% CO2 for 48 h. Following incubation, 20 μL of PrestoBlue were added to each well and incubated for additional 4 h. Fluorescence was read at 530 nm excitation and 590 nm emission.

[7] = LogD7.4; type: physicochemical; settings: pH 7.4
[8] = Human plasma protein binding; type: in vitro ADME
[9] = target: L. major amastigote; assay: L. major intracellular amastigote luciferase assay in RAW 264.7 macrophages; type: cell-based, Leishmania major; settings: intracellular amastigotes in RAW 264.7 macrophages, 96 h
Description: Amastigote assays were performed using pLEXSY-hyg2-luciferase L. major transfected promastigotes and the murine RAW 264.7 macrophage cell line (ATCC TIB-71, Manassas, VA). Briefly, luciferase-expressing promastigotes of each Leishmania species were generated by adding a luciferase encoding region to the pLEXSY-hyg2 vector (Jena Biosciences, Germany) as described. One μg of the linearized pLEXSY-hyg2-luciferase vector were electroporated (480 V, 13 Ω, and 500 μF) into 4×10^7 Leishmania promastigotes. Selection for stable promastigote transfectants was carried out using hygromycin B (100 μg/mL). RAW 264.7 macrophages were maintained in growth medium (Dulbecco’s Modified Eagle’s Medium supplemented with heat-inactivated 10% FBS (Life Technologies)). Cells were harvested and resuspended in growth medium at 2.0×10^5 cells/mL, and 1×10^4 cells/well were dispensed (final volume 50 μL) in each well of a 384 well tissue-culture treated white plate using a EVO Freedom liquid handling system (Tecan, Durham, NC). Plates were incubated at 37°C in 5% CO2 for 24 h after which the culture medium was removed from each well using the EVO Freedom liquid handler. Metacyclic phase pLEXSY-hyg2-luciferase-Leishmania promastigotes (MOI = 1:10 L. major) were added to each assay plate well and allowed to infect the RAW 264.7 macrophages. After an overnight incubation, the growth medium was aspirated and each well was washed three times with 40 μL of fresh growth medium to remove non-internalized promastigotes. After the third wash, 69.2 μL of growth medium was added to each well. Compound dilutions (final concentration ranges 0.5–10,000 ng/mL) were generated and dispensed using the liquid handling system. Compound treated plates were incubated at 37°C in 5% CO2 for 96 h. After incubation, 7.5 μL of a luciferin solution (Caliper Life Science, Waltham, MA) diluted to 150 μg/mL was added to each well, and the plates were incubated for 30 min at 37°C in the dark. Data were captured using an Infinite M200 plate reader (Tecan). EC50s were generated for each concentration response test using GraphPad Prism software 6.0.

[10] = Rat hepatocyte intrinsic clearance; type: in vitro ADME; settings: for hepatocyte CLint: hepatocytes
[11] = system: T. vivax STIB 719 / ILRAD 560; assay: Ex vivo drug sensitivity assay for T. vivax (48 h); type: cell-based; settings: Trypanosoma vivax, STIB719, 48 h
Description: Ex vivo drug sensitivity assay for T. vivax (48 h): Compounds were tested ex vivo against the STIB 719 / ILRAD 560 T. vivax (drug sensitive) strain which originated from the Y486 strain, isolated from a naturally infected bovine in 1976 in Zaria, Nigeria. Compounds were assayed in at least three separate, independent experiments and an 11-point dilution curve was used to determine the EC50 values. Bloodstream form trypanosomes were harvested from a highly parasitaemic mouse (via cardiac puncture) and were incubated with test compounds for 45 h at 37°C in a humidified atmosphere containing 5% CO2, supported in HMI-9 medium containing 20% bovine serum. Thereafter, Resazurin dye was added to monitor trypanosome viability as described in the preceding section.

[12] = system: T. congolense IL3000; assay: In vitro drug sensitivity assay for T. congolense (72 h); type: cell-based; settings: Trypanosoma congolense, IL3000 strain
Description: In vitro drug sensitivity assay for T. congolense (72 h): Compounds were tested in vitro for efficacy against the IL3000 T. congolense (drug sensitive) strain which was originally derived from the Trans Mara I strain, isolated from a bovine in 1966 in Kenya. […] Compounds were assayed in at least three separate, independent experiments and an 11-point dilution curve was used to determine the EC50 values. Bloodstream form trypanosomes were supported in HMI-9 medium containing 20% bovine serum and were incubated with test compounds for 69 h at 34°C in a humidified atmosphere containing 5% CO2. Thereafter, 10 μL of Resazurin dye (12.5 mg in 100 mL of phosphate-buffered saline, Sigma-Aldrich, Buchs, Switzerland) was added for an additional 3 h. Plates were read using a fluorescence plate reader (Spectramax, Gemini XS, Bucher Biotec, Basel, Switzerland) using an excitation wavelength of 536 nm and an emission wavelength of 588 nm.

[13] = intracellular in 3T3 cells, 96 h
[14] = Trypanosoma cruzi, TULAHUEN, NIH3T3, 96 h

| SMILES | HepG2 TC50 [1] [nM] | solubility [2] [µM] | Human Liver Microsome CLint [3] [µL/min/mg] | 3T3 TC50 [4] [nM] | EC50 [5, 13] [nM] | EC50 [6] [nM] | LogD7.4 [7] | Human PPB [8] [%] | EC50 [9] [nM] | Rat Hepatocyte CLint [10] [μL/min/10^6 cells] | EC50 [11] [nM] | microsomal CLint [3] [µL/min/mg] | EC50 [5, 14] [nM] | EC50 ([6]; Trypanosoma brucei) [nM] | logD [7] | EC50 [12] [nM] | EC50 ([9]; Leishmania major, RAW264.7) [nM] | hepatocyte CLint [10] [µL/min/1e6 cells] |
| --- | --- | --- | --- | --- | --- | --- | --- | --- | --- | --- | --- | --- | --- | --- | --- | --- | --- | --- |
| c1cnc(Nc2ccnc3cc(Nc4nccs4)ccc23)cn1 [NEU-2141] | 7100 | 4 (≈ 1.28 µg/mL) | 68 | 24000 | 22000 | 4400 | 3.3 | 91 | 24000 | 270 |  |  |  |  |  |  |  |  |
| CC(C)(C)OC(=O)Nc1ccc2c(Nc3ccc(OCc4cccc(F)c4)c(Cl)c3)ccnc2c1 [Compound 21] |  | 0.2 (≈ 0.0988 µg/mL) |  |  |  |  |  |  |  |  | 290 | 29 | 600 | 150 | 4.3 | 830 | 1100 | 48 |
| N=C(N)c1ccc(/N=N/Nc2ccc(C(=N)N)cc2)cc1 [Diminazene, diminazene aceturate, reference compound] |  |  |  |  |  |  |  |  |  |  | 100 |  |  | 9 |  | 130 |  |  |
| Cc1cnc(Nc2ccc3c(Nc4cnccn4)ccnc3c2)s1 [NEU-2149] | 5000 | 1 (≈ 0.334 µg/mL) | 54 | > 50000 | > 50000 | 2300 | 3.7 | 96 | 5300 | > 300 |  |  |  |  |  |  |  |  |
| c1cnc(Nc2ccnc3cc(Nc4nccnn4)ccc23)cn1 [NEU-2145] | 11000 | 3 (≈ 0.949 µg/mL) | 42 | > 50000 | > 50000 | 4700 | 2.1 | 75 | 28000 | > 300 |  |  |  |  |  |  |  |  |
| CN1CCN(c2nsnc2-c2ccc3c(Nc4ccc(OCc5cccc(F)c5)c(Cl)c4)ccnc3c2)CC1 [Compound 15] |  | < 0.1 |  |  |  |  |  |  |  |  | 210 | 35 | 4700 | 140 | 4.1 | 390 | 960 | 35 |
